Reference: US8148391B2 (Cephalon, Inc., priority 2006, dated 2012)
Read-outs that look alike come from different tables or passages of the source.

Key:
[1] = target: T1, c-Met (cytoplasmic domain) (Homo sapiens, UniProt P08581); assay: c-Met Kinase Assay (same methods as for ALK, with modifications); type: biochemical; conditions: 1 μM ATP (Km level)
T1 construct: 10 ng/mL c-Met (cytoplasmic domain, Invitrogen Corporation #PV3143); purchased Invitrogen Corporation PV3143
In short: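 Europium-labeled PT66 antibody (Eu-N1) detects substrate phosphorylation on wells coated with phospholipase C-γ at 10 μg/mL. The kinase, the cytoplasmic domain of c-Met at 10 ng/mL, starts the reaction, which proceeds 15 minutes at 37° C.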

[2] = target: T2, baculovirus-expressed ALK (Homo sapiens, UniProt Q9UM73); assay: ALK Kinase Assay (ELISA-type, time-resolved fluorescence); type: biochemical; conditions: 1 μM ATP (Km level); read-out: ALK Activity (ALK Kinase Inhibition, IC50)
T2 construct: host or cells: baculovirus expression system
In short: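 Plates coated with phospholipase C-γ substrate (10 μg/mL in TBS); reaction started with 30 ng/ml ALK and run 15 min at 37° C. Phosphorylated substrate detected with Eu-N1-labeled PT66 antibody. IC50 from sigmoidal variable-slope fit of percent inhibition vs log concentration.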

[3] = read-out: cMet Activity (c-Met Kinase Inhibition, IC50)

T2 sequence (Q9UM73 19-1620): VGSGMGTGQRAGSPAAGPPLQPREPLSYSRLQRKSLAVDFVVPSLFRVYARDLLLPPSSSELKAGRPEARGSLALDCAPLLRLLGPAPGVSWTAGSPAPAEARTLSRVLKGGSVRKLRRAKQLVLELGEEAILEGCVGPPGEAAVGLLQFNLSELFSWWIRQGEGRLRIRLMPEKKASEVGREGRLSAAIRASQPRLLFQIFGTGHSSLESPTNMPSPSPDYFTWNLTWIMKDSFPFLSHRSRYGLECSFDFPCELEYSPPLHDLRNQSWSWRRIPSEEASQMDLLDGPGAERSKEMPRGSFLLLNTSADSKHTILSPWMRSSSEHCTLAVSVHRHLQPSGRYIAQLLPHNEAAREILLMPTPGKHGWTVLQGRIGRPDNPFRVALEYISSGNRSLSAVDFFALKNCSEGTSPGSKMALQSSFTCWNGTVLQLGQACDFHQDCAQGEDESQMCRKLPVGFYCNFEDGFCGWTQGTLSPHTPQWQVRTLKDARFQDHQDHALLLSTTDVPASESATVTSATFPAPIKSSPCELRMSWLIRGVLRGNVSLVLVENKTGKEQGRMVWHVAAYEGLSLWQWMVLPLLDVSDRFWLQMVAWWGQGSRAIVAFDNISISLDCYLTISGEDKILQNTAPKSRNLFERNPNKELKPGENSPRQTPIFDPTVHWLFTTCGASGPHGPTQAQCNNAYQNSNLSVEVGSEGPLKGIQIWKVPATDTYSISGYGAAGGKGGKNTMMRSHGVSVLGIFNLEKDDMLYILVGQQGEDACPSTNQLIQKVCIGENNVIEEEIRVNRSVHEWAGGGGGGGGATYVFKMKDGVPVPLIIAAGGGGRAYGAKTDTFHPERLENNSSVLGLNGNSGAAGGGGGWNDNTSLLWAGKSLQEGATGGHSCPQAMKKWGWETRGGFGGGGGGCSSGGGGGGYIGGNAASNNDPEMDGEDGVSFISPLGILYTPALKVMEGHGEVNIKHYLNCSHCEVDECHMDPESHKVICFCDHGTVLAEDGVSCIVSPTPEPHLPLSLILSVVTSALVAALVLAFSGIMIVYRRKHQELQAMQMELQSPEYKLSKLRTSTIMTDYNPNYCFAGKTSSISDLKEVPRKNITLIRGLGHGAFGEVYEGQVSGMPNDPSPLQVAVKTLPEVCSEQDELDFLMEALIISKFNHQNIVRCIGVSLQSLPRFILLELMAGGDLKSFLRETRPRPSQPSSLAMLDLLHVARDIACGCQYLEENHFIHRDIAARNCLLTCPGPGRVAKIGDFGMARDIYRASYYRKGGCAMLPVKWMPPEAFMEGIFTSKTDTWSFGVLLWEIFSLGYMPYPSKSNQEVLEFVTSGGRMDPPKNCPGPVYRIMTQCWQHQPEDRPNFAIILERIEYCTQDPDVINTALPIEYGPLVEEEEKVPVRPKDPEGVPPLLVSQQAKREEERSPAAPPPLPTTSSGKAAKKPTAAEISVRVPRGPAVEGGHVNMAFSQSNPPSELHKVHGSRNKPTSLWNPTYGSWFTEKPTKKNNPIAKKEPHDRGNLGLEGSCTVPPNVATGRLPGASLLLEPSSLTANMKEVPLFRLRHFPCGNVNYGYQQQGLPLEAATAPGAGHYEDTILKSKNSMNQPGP
T1 sequence (P08581 956-1390 limits assumed): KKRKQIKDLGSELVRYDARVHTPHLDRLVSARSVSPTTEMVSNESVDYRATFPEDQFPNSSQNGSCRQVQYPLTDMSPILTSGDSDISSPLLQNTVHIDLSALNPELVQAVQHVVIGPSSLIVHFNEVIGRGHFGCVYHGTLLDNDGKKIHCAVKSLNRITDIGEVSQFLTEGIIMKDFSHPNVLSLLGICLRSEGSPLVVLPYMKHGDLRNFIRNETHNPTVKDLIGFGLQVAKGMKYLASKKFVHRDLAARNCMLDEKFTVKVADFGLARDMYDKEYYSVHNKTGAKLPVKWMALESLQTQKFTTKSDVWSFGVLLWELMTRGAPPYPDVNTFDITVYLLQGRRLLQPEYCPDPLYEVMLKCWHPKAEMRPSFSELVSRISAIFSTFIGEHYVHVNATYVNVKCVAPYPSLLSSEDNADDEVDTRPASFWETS

Structure (SMILES) | IC50 [1, 3] [nM] | IC50 [2] [nM] | IC50 ([1]; cMet Activity (c-Met Kinase Inhibition, IC50)) [nM]
COCCN1CCc2ccc(Nc3ncc(Cl)c(Nc4cc(C(N)=O)n[nH]4)n3)cc2CC1 [Example 954, 5-{5-Chloro-2-[3-(2-methoxy-ethyl)-2,3,4,5-tetrahydro-1H-3-benzazepin-7-ylamino]-pyrimidin-4-ylamino}-1H-pyrazole-3-carboxylic acid amide] | 100 to 1000 | 100 to 1000 | –
COCCN1CCc2ccc(Nc3ncc(Cl)c(Nc4cc(C)n[nH]4)n3)cc2CC1 [Example 955, 5-Chloro-N(2)-[3-(2-methoxy-ethyl)-2,3,4,5-tetrahydro-1H-3-benzazepin-7-yl]-N(4)-(5-methyl-2H-pyrazol-3-yl)-pyrimidine-2,4-diamine] | 1000 to 10000 | 100 to 1000 | –
COCCNC1CCCc2c(ccc(Nc3ncc(Cl)c(N[C@H]4[C@@H](C(N)=O)[C@@H]5C=C[C@H]4C5)n3)c2OC)C1 (stereo partly drawn) [Example 956, (1S,2S,3R,4R)-3-{5-Chloro-2-[1-methoxy-6-(2-methoxy-ethylamino)-6,7,8,9-tetrahydro-5H-benzocyclohepten-2-ylamino]-pyrimidin-4-ylamino}-bicyclo[2.2.1]hept-5-ene-2-carboxylic acid amide] | – | < 100 | > 10000
COCCNC1CCCc2c(ccc(Nc3ncc(Cl)c(Nc4ccccc4S(=O)(=O)N(C)C)n3)c2OC)C1 (stereo not shown) [Example 957, 2-{5-Chloro-2-[1-methoxy-6-(2-methoxy-ethylamino)-6,7,8,9-tetrahydro-5H-benzocyclohepten-2-ylamino]-pyrimidin-4-ylamino}-N,N-dimethyl-benzenesulfonamide] | > 10000 | < 100 | –
COCCNC1CCCc2c(ccc(Nc3ncc(Cl)c(N[C@@H]4CCCC[C@H]4NS(C)(=O)=O)n3)c2OC)C1 (stereo partly drawn) [Example 958, N-((1R,2R)-2-{5-Chloro-2-[1-methoxy-6-(2-methoxy-ethylamino)-6,7,8,9-tetrahydro-5H-benzocyclohepten-2-ylamino]-pyrimidin-4-ylamino}-cyclohexyl)-methanesulfonamide] | > 10000 | < 100 | –
COCCNC1CCCc2c(ccc(Nc3ncc(Cl)c(Nc4ccccc4S(=O)(=O)C(C)C)n3)c2OC)C1 (stereo not shown) [Example 959, 5-Chloro-N(2)-[1-methoxy-6-(2-methoxy-ethylamino)-6,7,8,9-tetrahydro-5H-benzocyclohepten-2-yl]-N(4)-[2-(propane-2-sulfonyl)-phenyl]-pyrimidine-2,4-diamine] | > 10000 | < 100 | –
COc1c(Nc2ncc(Cl)c(Nc3ccccc3S(=O)(=O)C(C)C)n2)ccc2c1CCCC(NCCO)C2 (stereo not shown) [Example 961, 2-(2-{5-Chloro-4-[2-(propane-2-sulfonyl)-phenylamino]-pyrimidin-2-ylamino}-1-methoxy-6,7,8,9-tetrahydro-5H-benzocyclohepten-6-ylamino)-ethanol] | > 10000 | < 100 | –
COc1c(Nc2ncc(Cl)c(Nc3ccccc3S(=O)(=O)N3CC[C@@H](O)C3)n2)ccc2c1CCCC(NCCO)C2 (stereo partly drawn) [Example 962, (R)-1-(2-{5-Chloro-2-[6-(2-hydroxy-ethylamino)-1-methoxy-6,7,8,9-tetrahydro-5H-benzocyclohepten-2-ylamino]-pyrimidin-4-ylamino}-benzenesulfonyl)-pyrrolidin-3-ol] | > 10000 | < 100 | –
COc1c(Nc2ncc(Cl)c(Nc3ccccc3S(=O)(=O)N3CC[C@H](O)C3)n2)ccc2c1CCCC(NCCO)C2 (stereo partly drawn) [Example 963, (S)-1-(2-{5-Chloro-2-[6-(2-hydroxy-ethylamino)-1-methoxy-6,7,8,9-tetrahydro-5H-benzocyclohepten-2-ylamino]-pyrimidin-4-ylamino}-benzenesulfonyl)-pyrrolidin-3-ol] | 1000 to 10000 | < 100 | –
COc1c(Nc2ncc(Cl)c(Nc3ccccc3S(=O)(=O)N3CCCC3)n2)ccc2c1CCCC(NCCO)C2 (stereo not shown) [Example 964, 2-(2-{5-Chloro-4-[2-(pyrrolidine-1-sulfonyl)-phenylamino]-pyrimidin-2-ylamino}-1-methoxy-6,7,8,9-tetrahydro-5H-benzocyclohepten-6-ylamino)-ethanol] | > 10000 | < 100 | –
COc1c(Nc2ncc(Cl)c(N[C@@H]3CCCC[C@H]3NS(C)(=O)=O)n2)ccc2c1CCCC(NCCO)C2 (stereo partly drawn) [Example 965, N-((1R,2R)-2-{5-Chloro-2-[6-(2-hydroxy-ethylamino)-1-methoxy-6,7,8,9-tetrahydro-5H-benzocyclohepten-2-ylamino]-pyrimidin-4-ylamino}-cyclohexyl)-methanesulfonamide] | > 10000 | < 100 | –
Cc1cccnc1-c1ccccc1Nc1nc(Nc2ccc3c(c2)C(C)(C)CCC(=O)N3)ncc1Cl [Example 971, 7-{5-Chloro-4-[2-(3-methyl-pyridin-2-yl)-phenylamino]-pyrimidin-2-ylamino}-5,5-dimethyl-1,3,4,5-tetrahydro-benzo[b]azepin-2-one] | 1000 to 10000 | < 100 | –
COCCN1CCc2ccc(Nc3ncc(Cl)c(Nc4ccccc4-c4ncccc4C)n3)cc2CC1 [Example 972, 5-Chloro-N*2*-[3-(2-methoxy-ethyl)-2,3,4,5-tetrahydro-1H-benzo[d]azepin-7-yl]-N*4*-[2-(3-methyl-pyridin-2-yl)-phenyl]-pyrimidine-2,4-diamine] | 100 to 1000 | < 100 | –
Cc1nnc(-c2ccccc2Nc2nc(Nc3ccc4c(c3)C(C)(C)CCC(=O)N4)ncc2Cl)s1 [Example 973, 7-{5-Chloro-4-[2-(5-methyl-[1,3,4]thiadiazol-2-yl)-phenylamino]-pyrimidin-2-ylamino}-5,5-dimethyl-1,3,4,5-tetrahydro-benzo[b]azepin-2-one] | 1000 to 10000 | 100 to 1000 | –
COCCN1CCc2ccc(Nc3ncc(Cl)c(Nc4ccccc4-c4nnc(C)s4)n3)cc2CC1 [Example 974, 5-Chloro-N*2*-[3-(2-methoxy-ethyl)-2,3,4,5-tetrahydro-1H-benzo[d]azepin-7-yl]-N*4*-[2-(5-methyl-[1,3,4]thiadiazol-2-yl)-phenyl]-pyrimidine-2,4-diamine] | 100 to 1000 | 100 to 1000 | –
CC1(C)CCC(=O)Nc2ccc(Nc3ncc(Cl)c(Nc4ccccc4-c4cnccn4)n3)cc21 [Example 975] | 1000 to 10000 | < 100 | –
CC1(C)CCC(=O)Nc2ccc(Nc3ncc(Cl)c(Nc4ccccc4-c4ncccn4)n3)cc21 [Example 976, 7-[5-Chloro-4-(2-pyrimidin-2-yl-phenylamino)-pyrimidin-2-ylamino]-5,5-dimethyl-1,3,4,5-tetrahydro-benzo[b]azepin-2-one] | > 10000 | < 100 | –
COCCN1CCc2ccc(Nc3ncc(Cl)c(Nc4ccccc4-c4ncccn4)n3)cc2CC1 [Example 977, 5-Chloro-N*2*-[3-(2-methoxy-ethyl)-2,3,4,5-tetrahydro-1H-benzo[d]azepin-7-yl]-N*4*-(2-pyrimidin-2-yl-phenyl)-pyrimidine-2,4-diamine] | 100 to 1000 | < 100 | –
CC1(C)CCC(=O)Nc2ccc(Nc3ncc(Cl)c(Nc4ccccc4-c4nccs4)n3)cc21 [Example 978, 7-[5-Chloro-4-(2-thiazol-2-yl-phenylamino)-pyrimidin-2-ylamino]-5,5-dimethyl-1,3,4,5-tetrahydro-benzo[b]azepin-2-one] | > 10000 | < 100 | –
COCCN1CCc2ccc(Nc3ncc(Cl)c(Nc4ccccc4-c4nccs4)n3)cc2CC1 [Example 979, 5-Chloro-N*2*-[3-(2-methoxy-ethyl)-2,3,4,5-tetrahydro-1H-benzo[d]azepin-7-yl]-N*4*-(2-thiazol-2-yl-phenyl)-pyrimidine-2,4-diamine] | 100 to 1000 | < 100 | –
